Values joined by “and” are separate entries in the source; they are usually repeats but may differ in a detail not shown here. Equal entries are not always repeated.
Test system: 287954-098-R-J1 tumor spheroid viability
Experiment: Anticancer human tumor 287954-098-R-J1 patient-derived Ewing sarcoma cell line growth inhibition
Conditions: spheroids with HUVEC and MSC; for viability, T/C: stronger effect = lower value
Summary of the method: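 Single agents and combinations were tested on spheroids built from tumor cells plus HUVEC and hMSC, at half-log dilutions starting at or near clinical Cmax, else 10 microM; final DMSO 0.25% (v/v).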

[1] = compound alone, run of 10/17/2019
[2] = compound alone, run of 10/25/2019
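Further: spheroids exposed to compound for 7 days before viability readout.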
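Wherever viability, T/C is given: luminescent signal taken as surrogate of viable cell content; 100% = DMSO vehicle control viability and lower means growth inhibition.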

**Q.** Cc1sc2c(c1C)C(c1ccc(Cl)cc1)=NC(CC(=O)Nc1ccc(O)cc1)c1nnc(C)n1-2 (stereo unspecified) + COc1cc2c(cc1O)CCNC21CSC2c3c(OC(C)=O)c(C)c4c(c3C(COC1=O)N1C(O)C3Cc5cc(C)c(OC)c(O)c5C(C21)N3C)OCO4 was tested. Which IC50 (curve of first compound, second compound 30 pM) did it give?
**A.** 0.529 µM

**Q.** What about the IC50 (curve of first compound, second compound 94.9 pM) of the same compound?
**A.** 0.428 µM

**Q.** And the IC50 (curve of first compound, second compound 0.0003 µM)?
**A.** 0.0773 µM

**Q.** And the IC50 (curve of first compound, second compound 0.000949 µM)?
**A.** < 0.00949 µM

**Q.** And the IC50 (curve of first compound, second compound 0.003 µM)?
**A.** < 0.00949 µM

**Q.** What about the viability, T/C (second compound 30 pM, first compound 0.00949 µM) of the same compound?
**A.** 110%

**Q.** What about the viability, T/C (second compound 30 pM, first compound 0.03 µM) of the same compound?
**A.** 120%

**Q.** And the viability, T/C (second compound 30 pM, first compound 0.0949 µM)?
**A.** 111%

**Q.** And the viability, T/C (second compound 30 pM, first compound 0.3 µM)?
**A.** 97.2%

**Q.** And the viability, T/C (second compound 30 pM, first compound 0.949 µM)?
**A.** 1.47%

**Q.** What about the viability, T/C (second compound 30 pM, first compound 3 µM) of the same compound?
**A.** 1.05%

**Q.** What about the viability, T/C (second compound 94.9 pM, first compound 0.00949 µM) of the same compound?
**A.** 109%

**Q.** What about the viability, T/C (second compound 94.9 pM, first compound 0.03 µM) of the same compound?
**A.** 117%

**Q.** What about the viability, T/C (second compound 94.9 pM, first compound 0.0949 µM) of the same compound?
**A.** 112%

**Q.** What about the viability, T/C (second compound 94.9 pM, first compound 0.3 µM) of the same compound?
**A.** 65.4%

**Q.** And the viability, T/C (second compound 94.9 pM, first compound 0.949 µM)?
**A.** 14.5%

**Q.** And the viability, T/C (second compound 94.9 pM, first compound 3 µM)?
**A.** 1.03%

**Q.** What about the viability, T/C (second compound 0.0003 µM, first compound 0.00949 µM) of the same compound?
**A.** 105%

**Q.** And the viability, T/C (second compound 0.0003 µM, first compound 0.03 µM)?
**A.** 93.7%

**Q.** And the viability, T/C (second compound 0.0003 µM, first compound 0.0949 µM)?
**A.** 39%

**Q.** What about the viability, T/C (second compound 0.0003 µM, first compound 0.3 µM) of the same compound?
**A.** 12.4%

**Q.** What about the viability, T/C (second compound 0.0003 µM, first compound 0.949 µM) of the same compound?
**A.** 0.78%

**Q.** And the viability, T/C (second compound 0.0003 µM, first compound 3 µM)?
**A.** 0.57%

**Q.** And the viability, T/C (second compound 0.000949 µM, first compound 0.00949 µM)?
**A.** 0.33%

**Q.** And the viability, T/C (second compound 0.000949 µM, first compound 0.03 µM)?
**A.** 0.34%

**Q.** What about the viability, T/C (second compound 0.000949 µM, first compound 0.0949 µM) of the same compound?
**A.** 0.25%

**Q.** And the viability, T/C (second compound 0.000949 µM, first compound 0.3 µM)?
**A.** 0.07%

**Q.** And the viability, T/C (second compound 0.000949 µM, first compound 0.949 µM)?
**A.** 0.03%

**Q.** What about the viability, T/C (second compound 0.000949 µM, first compound 3 µM) of the same compound?
**A.** 0.11%

**Q.** And the viability, T/C (second compound 0.003 µM, first compound 0.00949 µM)?
**A.** 0.17%

**Q.** What about the viability, T/C (second compound 0.003 µM, first compound 0.03 µM) of the same compound?
**A.** 0.16%

**Q.** And the viability, T/C (second compound 0.003 µM, first compound 0.0949 µM)?
**A.** 0.1%

**Q.** And the viability, T/C (second compound 0.003 µM, first compound 0.3 µM)?
**A.** 0.11%

**Q.** And the viability, T/C (second compound 0.003 µM, first compound 0.949 µM)?
**A.** 0.11%

**Q.** What about the viability, T/C (second compound 0.003 µM, first compound 3 µM) of the same compound?
**A.** 0.19%

**Q.** How did the IC50 (curve of first compound, second compound 1 µM) turn out when Cc1sc2c(c1C)C(c1ccc(Cl)cc1)=NC(CC(=O)Nc1ccc(O)cc1)c1nnc(C)n1-2 (stereo unspecified) + Cn1nnc2c(C(N)=O)ncn2c1=O was run?
**A.** 0.954 µM

**Q.** What about the IC50 (curve of first compound, second compound 3.16 µM) of the same compound?
**A.** 0.624 µM

**Q.** What about the IC50 (curve of first compound, second compound 10 µM) of the same compound?
**A.** 1.11 µM

**Q.** And the IC50 (curve of first compound, second compound 31.6 µM)?
**A.** 0.624 µM

**Q.** And the IC50 (curve of first compound, second compound 100 µM)?
**A.** 0.181 µM

**Q.** And the viability, T/C (second compound 1 µM, first compound 0.00949 µM)?
**A.** 112%

**Q.** What about the viability, T/C (second compound 1 µM, first compound 0.03 µM) of the same compound?
**A.** 117%

**Q.** What about the viability, T/C (second compound 1 µM, first compound 0.0949 µM) of the same compound?
**A.** 111%

**Q.** And the viability, T/C (second compound 1 µM, first compound 0.3 µM)?
**A.** 101%

**Q.** What about the viability, T/C (second compound 1 µM, first compound 0.949 µM) of the same compound?
**A.** 50.2%

**Q.** And the viability, T/C (second compound 1 µM, first compound 3 µM)?
**A.** 4.34%

**Q.** And the viability, T/C (second compound 3.16 µM, first compound 0.00949 µM)?
**A.** 110%

**Q.** And the viability, T/C (second compound 3.16 µM, first compound 0.03 µM)?
**A.** 113%

**Q.** And the viability, T/C (second compound 3.16 µM, first compound 0.0949 µM)?
**A.** 123%

**Q.** What about the viability, T/C (second compound 3.16 µM, first compound 0.3 µM) of the same compound?
**A.** 91.9%

**Q.** What about the viability, T/C (second compound 3.16 µM, first compound 0.949 µM) of the same compound?
**A.** 25.9%

**Q.** And the viability, T/C (second compound 3.16 µM, first compound 3 µM)?
**A.** 2.69%

**Q.** And the viability, T/C (second compound 10 µM, first compound 0.00949 µM)?
**A.** 113%

**Q.** And the viability, T/C (second compound 10 µM, first compound 0.03 µM)?
**A.** 122%

**Q.** And the viability, T/C (second compound 10 µM, first compound 0.0949 µM)?
**A.** 122%

**Q.** And the viability, T/C (second compound 10 µM, first compound 0.3 µM)?
**A.** 100%

**Q.** What about the viability, T/C (second compound 10 µM, first compound 0.949 µM) of the same compound?
**A.** 58.3%

**Q.** What about the viability, T/C (second compound 10 µM, first compound 3 µM) of the same compound?
**A.** 2.44%

**Q.** And the viability, T/C (second compound 31.6 µM, first compound 0.00949 µM)?
**A.** 114%

**Q.** And the viability, T/C (second compound 31.6 µM, first compound 0.03 µM)?
**A.** 130%

**Q.** And the viability, T/C (second compound 31.6 µM, first compound 0.0949 µM)?
**A.** 121%

**Q.** What about the viability, T/C (second compound 31.6 µM, first compound 0.3 µM) of the same compound?
**A.** 113%

**Q.** And the viability, T/C (second compound 31.6 µM, first compound 0.949 µM)?
**A.** 13.7%

**Q.** And the viability, T/C (second compound 31.6 µM, first compound 3 µM)?
**A.** 1.92%

**Q.** And the viability, T/C (second compound 100 µM, first compound 0.00949 µM)?
**A.** 105%

**Q.** What about the viability, T/C (second compound 100 µM, first compound 0.03 µM) of the same compound?
**A.** 115%

**Q.** And the viability, T/C (second compound 100 µM, first compound 0.0949 µM)?
**A.** 98.2%

**Q.** What about the viability, T/C (second compound 100 µM, first compound 0.3 µM) of the same compound?
**A.** 12.2%

**Q.** What about the viability, T/C (second compound 100 µM, first compound 0.949 µM) of the same compound?
**A.** 2.46%

**Q.** What about the viability, T/C (second compound 100 µM, first compound 3 µM) of the same compound?
**A.** 2.14%

**Q.** Which results are given for Cn1nnc2c(C(N)=O)ncn2c1=O?
**A.** viability, T/C (compound 1 µM): 101% [middle of 10 runs]; viability, T/C (compound 3.16 µM): 101% [middle of 10 runs]; viability, T/C (compound 10 µM): 105% [middle of 10 runs]; viability, T/C (compound 31.6 µM): 111% [middle of 10 runs]; viability, T/C (compound 100 µM): 100% [middle of 10 runs]; IC50 [1]: > 100 µM

**Q.** How did the viability, T/C (compound 0.0316 µM) turn out when Cc1cc(C)c(CNC(=O)c2cc(-c3ccc(CN4CCOCC4)cc3)cc3c2cnn3C2CCCC2)c(=O)[nH]1 was run?
**A.** 104% and 106% and 95.4%

**Q.** What about the viability, T/C (compound 0.1 µM) of the same compound?
**A.** 95.6% and 106% and 114%

**Q.** And the viability, T/C (compound 0.316 µM)?
**A.** 99.8% and 99.5% and 103%

**Q.** What about the viability, T/C (compound 1 µM) of the same compound?
**A.** 102% and 97.1% and 101%

**Q.** And the viability, T/C (compound 3.16 µM)?
**A.** 98.2% and 112% and 109%

**Q.** And the viability, T/C (compound 10 µM)?
**A.** 113% and 108% and 114%

**Q.** And the IC50 (curve of compound)?
**A.** > 10 µM

**Q.** For COc1cc2c(cc1O)CCNC21CSC2c3c(OC(C)=O)c(C)c4c(c3C(COC1=O)N1C(O)C3Cc5cc(C)c(OC)c(O)c5C(C21)N3C)OCO4 (stereo unspecified), which viability, T/C (compound 30 pM) is on record?
**A.** 106% [middle of 10 runs]

**Q.** What about the viability, T/C (compound 94.9 pM) of the same compound?
**A.** 107% [middle of 10 runs]

**Q.** What about the viability, T/C (compound 0.0003 µM) of the same compound?
**A.** 105% [middle of 10 runs]

**Q.** And the viability, T/C (compound 0.000949 µM)?
**A.** 0.29% [middle of 9 runs]

**Q.** And the viability, T/C (compound 0.003 µM)?
**A.** 0.17% [middle of 8 runs]

**Q.** And the IC50 [2]?
**A.** 0.548 nM [middle of 9 runs]

**Q.** CC[C@@]1(O)C(=O)OCc2c1cc1n(c2=O)Cc2cc3c(CN(C)C)c(O)ccc3nc2-1 was tested. Which viability, T/C (compound 0.003 µM) did it give?
**A.** 104% [middle of 10 runs]

**Q.** And the viability, T/C (compound 0.00949 µM)?
**A.** 101% [middle of 10 runs]

**Q.** And the viability, T/C (compound 0.03 µM)?
**A.** 15.2% [middle of 10 runs]

**Q.** And the viability, T/C (compound 0.0949 µM)?
**A.** 1.9% [middle of 9 runs]

**Q.** And the viability, T/C (compound 0.3 µM)?
**A.** 1.83% [middle of 10 runs]

**Q.** What about the IC50 [1] of the same compound?
**A.** 19.4 nM [middle of 5 runs]

**Q.** And the IC50 [2]?
**A.** 18.8 nM [middle of 4 runs]

From PubChem BioAssay AID1845194 (Molecular Pharmacology Branch, DTP, NCI, 2023)
